Measured values reported in patent US11053204B2, “Pyrimidinyloxy benzene derivatives as herbicides” (FMC Corporation, priority 2015, dated 2021).

Tests used:
Format in all cases: in vivo
[1] = tested on: ducksalad (Heteranthera limosa); test: Test B flooded paddy test, plant response rating; details: 250 g ai/ha; Flood; scale of 0 to 100 where 0 is no effect and 100 is complete control; 13 to 15 days
How it was run: (§1)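 Test compounds are applied straight into paddy water held 3 cm above the soil surface, with that flood maintained for the whole test. After 13 to 15 days in the greenhouse, each species is scored visually relative to controls.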

[2] = tested on: rice (Oryza sativa); test: Test B flooded paddy test, plant response rating; details: 250 g ai/ha; Flood; scale of 0 to 100 where 0 is no effect and 100 is complete control; 13 to 15 days
How it was run: as §1

[3] = tested on: barnyardgrass (Echinochloa crus-galli); test: Test B flooded paddy test, plant response rating; details: 250 g ai/ha; Flood; scale of 0 to 100 where 0 is no effect and 100 is complete control; 13 to 15 days
How it was run: as §1

[4] = tested on: sedge, umbrella (small-flower umbrella sedge, Cyperus difformis); test: Test B flooded paddy test, plant response rating; details: 250 g ai/ha; Flood; scale of 0 to 100 where 0 is no effect and 100 is complete control; 13 to 15 days
How it was run: as §1

[5] = tested on: kochia (Kochia scoparia); test: Test A preemergence, visual injury rating; details: for Plant response rating, Kochia: 31 g ai/ha, 0 to 100 scale, 0 no effect, 100 complete control; for Kochia plant response rating: 125 g ai/ha, 0 to 100 scale (0 no effect, 100 complete control)
How it was run: (§2)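 Compounds in non-phytotoxic solvent with surfactant applied as soil spray preemergence, or postemergence to plants 2-10 cm at one- to two-leaf stage, in loam/sand. After approximately 10 days in greenhouse, injury rated visually versus untreated controls, 0 (no effect) to 100 (complete control).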

[6] = tested on: giant foxtail (Setaria faberii); test: Test A preemergence, visual injury rating; details: for Plant response rating, Foxtail, Giant: 31 g ai/ha, 0 to 100 scale, 0 no effect, 100 complete control; for Foxtail, Giant plant response rating: 125 g ai/ha, 0 to 100 scale (0 no effect, 100 complete control)
How it was run: as §2

[7] = tested on: pigweed (Amaranthus retroflexus); test: Test A preemergence, visual injury rating; details: for Plant response rating, Pigweed: 31 g ai/ha, 0 to 100 scale, 0 no effect, 100 complete control; for Pigweed plant response rating: 125 g ai/ha, 0 to 100 scale (0 no effect, 100 complete control)
How it was run: as §2

[8] = tested on: ragweed (common ragweed, Ambrosia elatior); test: Test A preemergence, visual injury rating; details: for Plant response rating, Ragweed: 31 g ai/ha, 0 to 100 scale, 0 no effect, 100 complete control; for Ragweed plant response rating: 125 g ai/ha, 0 to 100 scale (0 no effect, 100 complete control)
How it was run: as §2

[9] = tested on: Italian ryegrass (Lolium multiflorum); test: Test A preemergence, visual injury rating; details: for Plant response rating, Ryegrass, Italian: 31 g ai/ha, 0 to 100 scale, 0 no effect, 100 complete control; for Ryegrass, Italian plant response rating: 125 g ai/ha, 0 to 100 scale (0 no effect, 100 complete control)
How it was run: as §2

[10] = tested on: barnyardgrass (Echinochloa crus-galli); test: Test A preemergence, visual injury rating; details: for Plant response rating, Barnyardgrass: 31 g ai/ha, 0 to 100 scale, 0 no effect, 100 complete control; for Barnyardgrass plant response rating: 125 g ai/ha, 0 to 100 scale (0 no effect, 100 complete control)
How it was run: as §2

[11] = tested on: kochia (Kochia scoparia); test: Test A postemergence, visual injury rating; details: 0 is no effect, 100 is complete control; for Kochia plant response rating: 31 g ai/ha, 0 to 100 scale, approximately 10 days; for Kochia plant response rating (0 to 100 scale): 125 g ai/ha
How it was run: as §2

[12] = tested on: giant foxtail (Setaria faberii); test: Test A postemergence, visual injury rating; details: 0 is no effect, 100 is complete control; for Foxtail, Giant plant response rating: 31 g ai/ha, 0 to 100 scale, approximately 10 days; for Foxtail, Giant plant response rating (0 to 100 scale): 125 g ai/ha
How it was run: as §2

[13] = tested on: wheat (Triticum aestivum); test: Test A postemergence, visual injury rating; details: 0 is no effect, 100 is complete control; for Wheat plant response rating: 31 g ai/ha, 0 to 100 scale, approximately 10 days; for Wheat plant response rating (0 to 100 scale): 125 g ai/ha
How it was run: as §2

[14] = tested on: pigweed (Amaranthus retroflexus); test: Test A postemergence, visual injury rating; details: 0 is no effect, 100 is complete control; for Pigweed plant response rating: 31 g ai/ha, 0 to 100 scale, approximately 10 days; for Pigweed plant response rating (0 to 100 scale): 125 g ai/ha
How it was run: as §2

[15] = tested on: ragweed (common ragweed, Ambrosia elatior); test: Test A postemergence, visual injury rating; details: 0 is no effect, 100 is complete control; for Ragweed plant response rating: 31 g ai/ha, 0 to 100 scale, approximately 10 days; for Ragweed plant response rating (0 to 100 scale): 125 g ai/ha
How it was run: as §2

[16] = tested on: Italian ryegrass (Lolium multiflorum); test: Test A postemergence, visual injury rating; details: 0 is no effect, 100 is complete control; for Ryegrass, Italian plant response rating: 31 g ai/ha, 0 to 100 scale, approximately 10 days; for Ryegrass, Italian plant response rating (0 to 100 scale): 125 g ai/ha
How it was run: as §2

[17] = tested on: blackgrass (Alopecurus myosuroides); test: Test A postemergence, visual injury rating; details: 0 is no effect, 100 is complete control; for Blackgrass plant response rating: 31 g ai/ha, 0 to 100 scale, approximately 10 days; for Blackgrass plant response rating (0 to 100 scale): 125 g ai/ha
How it was run: as §2

[18] = tested on: corn (Zea mays); test: Test A postemergence, visual injury rating; details: 0 is no effect, 100 is complete control; for Corn plant response rating: 31 g ai/ha, 0 to 100 scale, approximately 10 days; for Corn plant response rating (0 to 100 scale): 125 g ai/ha
How it was run: as §2

[19] = tested on: galium (catchweed bedstraw, Galium aparine); test: Test A postemergence, visual injury rating; details: 0 is no effect, 100 is complete control; for Galium plant response rating: 31 g ai/ha, 0 to 100 scale, approximately 10 days; for Galium plant response rating (0 to 100 scale): 125 g ai/ha
How it was run: as §2

[20] = tested on: barnyardgrass (Echinochloa crus-galli); test: Test A postemergence, visual injury rating; details: 0 is no effect, 100 is complete control; for Barnyardgrass plant response rating: 31 g ai/ha, 0 to 100 scale, approximately 10 days; for Barnyardgrass plant response rating (0 to 100 scale): 125 g ai/ha
How it was run: as §2

Compound | Plant response rating, Ducksalad [1] | Plant response rating, Rice [2] | Plant response rating, Barnyardgrass [3] | Plant response rating, Sedge, Umbrella [4] | Plant response rating, Kochia [5] | Kochia plant response rating [5] | Plant response rating, Foxtail, Giant [6] | Foxtail, Giant plant response rating [6] | Plant response rating, Pigweed [7] | Pigweed plant response rating [7] | Plant response rating, Ragweed [8] | Ragweed plant response rating [8] | Plant response rating, Ryegrass, Italian [9] | Ryegrass, Italian plant response rating [9] | Plant response rating, Barnyardgrass [10] | Barnyardgrass plant response rating [10] | Kochia plant response rating [11] | Kochia plant response rating (0 to 100 scale) [11] | Foxtail, Giant plant response rating [12] | Foxtail, Giant plant response rating (0 to 100 scale) [12] | further results
CC(C)(C)OC(=O)c1c(F)cccc1Oc1ncc(Cl)cn1 [Compound 43] | 0 | 0 | 0 | 0 | 100 | 100 | 0 | 60 | 30 | 90 | 0 | 0 | 0 | 0 | 0 | 40 | 0 | 10 | 0 | 0 | Wheat plant response rating [13]: 0; Wheat plant response rating (0 to 100 scale) [13]: 0; Pigweed plant response rating [14]: 10; Pigweed plant response rating (0 to 100 scale) [14]: 40; Ragweed plant response rating [15]: 0; Ragweed plant response rating (0 to 100 scale) [15]: 0; Ryegrass, Italian plant response rating [16]: 0; Ryegrass, Italian plant response rating (0 to 100 scale) [16]: 0; Blackgrass plant response rating [17]: 0; Blackgrass plant response rating (0 to 100 scale) [17]: 0; Corn plant response rating [18]: 0; Corn plant response rating (0 to 100 scale) [18]: 0; Galium plant response rating [19]: 20; Galium plant response rating (0 to 100 scale) [19]: 40; Barnyardgrass plant response rating [20]: 0; Barnyardgrass plant response rating (0 to 100 scale) [20]: 10
O=C(OC1CCCC1)c1c(Br)cccc1Oc1ncc(Cl)cn1 [Compound 44] | 0 | 0 | 0 | 30 | 0 | 0 | 0 | 40 | 0 | 0 | 0 | 0 | 0 | 0 | 0 | 0 | 0 | 0 | 0 | 0 | Wheat plant response rating [13]: 0; Wheat plant response rating (0 to 100 scale) [13]: 0; Pigweed plant response rating [14]: 0; Pigweed plant response rating (0 to 100 scale) [14]: 0; Ragweed plant response rating [15]: 0; Ragweed plant response rating (0 to 100 scale) [15]: 0; Ryegrass, Italian plant response rating [16]: 0; Ryegrass, Italian plant response rating (0 to 100 scale) [16]: 0; Blackgrass plant response rating [17]: 0; Blackgrass plant response rating (0 to 100 scale) [17]: 0; Corn plant response rating [18]: 0; Corn plant response rating (0 to 100 scale) [18]: 0; Galium plant response rating [19]: 0; Galium plant response rating (0 to 100 scale) [19]: 0; Barnyardgrass plant response rating [20]: 0; Barnyardgrass plant response rating (0 to 100 scale) [20]: 0
O=C(OCC(Cl)(Cl)Cl)c1c(Br)cccc1Oc1ncc(Cl)cn1 [Compound 45] | 0 | 0 | 0 | 0 | 0 | 0 | 0 | 10 | 0 | 70 | 0 | 0 | 0 | 0 | 0 | 0 | 20 | 50 | 20 | 20 | Wheat plant response rating [13]: 0; Wheat plant response rating (0 to 100 scale) [13]: 0; Pigweed plant response rating [14]: 80; Pigweed plant response rating (0 to 100 scale) [14]: 100; Ragweed plant response rating [15]: 10; Ragweed plant response rating (0 to 100 scale) [15]: 10; Ryegrass, Italian plant response rating [16]: 0; Ryegrass, Italian plant response rating (0 to 100 scale) [16]: 0; Blackgrass plant response rating [17]: 0; Blackgrass plant response rating (0 to 100 scale) [17]: 0; Corn plant response rating [18]: 0; Corn plant response rating (0 to 100 scale) [18]: 20; Galium plant response rating [19]: 50; Galium plant response rating (0 to 100 scale) [19]: 100; Barnyardgrass plant response rating [20]: 20; Barnyardgrass plant response rating (0 to 100 scale) [20]: 20
O=C(OCCCl)c1c(Br)cccc1Oc1ncc(Cl)cn1 [Compound 46] | 75 | 10 | 0 | 80 | 0 | 70 | 40 | 100 | 50 | 100 | 0 | 0 | 0 | 0 | 0 | 20 | 30 | 90 | 0 | 40 | Wheat plant response rating [13]: 0; Wheat plant response rating (0 to 100 scale) [13]: 0; Pigweed plant response rating [14]: 60; Pigweed plant response rating (0 to 100 scale) [14]: 100; Ragweed plant response rating [15]: 0; Ragweed plant response rating (0 to 100 scale) [15]: 0; Ryegrass, Italian plant response rating [16]: 0; Ryegrass, Italian plant response rating (0 to 100 scale) [16]: 0; Blackgrass plant response rating [17]: 0; Blackgrass plant response rating (0 to 100 scale) [17]: 0; Corn plant response rating [18]: 0; Corn plant response rating (0 to 100 scale) [18]: 10; Galium plant response rating [19]: 50; Galium plant response rating (0 to 100 scale) [19]: 70; Barnyardgrass plant response rating [20]: 0; Barnyardgrass plant response rating (0 to 100 scale) [20]: 30
